Measurements reported in ChEMBL document CHEMBL4350965 (J Med Chem, 2019).

Legend:
[1] = Stability in rat liver microsomes assessed as parent compound remaining at 1 uM measured after 30 mins in presence of NADPH generating system
[2] = Stability in human liver microsomes assessed as parent compound remaining at 1 uM measured after 30 mins in presence of NADPH generating system
[3] = target: T1, Phosphatidylinositol 4,5-bisphosphate 3-kinase catalytic subunit delta isoform (Homo sapiens, UniProt O00329); experiment: Inhibition of PI3Kdelta in human Ramos cells assessed as reduction in antihuman IgM-stimulated AKT phosphorylation at Ser473 residue preincubated for 60 mins followed by antihuman IgM stimulation and measured after 15 mins; type: cell-based
T1 sequence (O00329 whole entry): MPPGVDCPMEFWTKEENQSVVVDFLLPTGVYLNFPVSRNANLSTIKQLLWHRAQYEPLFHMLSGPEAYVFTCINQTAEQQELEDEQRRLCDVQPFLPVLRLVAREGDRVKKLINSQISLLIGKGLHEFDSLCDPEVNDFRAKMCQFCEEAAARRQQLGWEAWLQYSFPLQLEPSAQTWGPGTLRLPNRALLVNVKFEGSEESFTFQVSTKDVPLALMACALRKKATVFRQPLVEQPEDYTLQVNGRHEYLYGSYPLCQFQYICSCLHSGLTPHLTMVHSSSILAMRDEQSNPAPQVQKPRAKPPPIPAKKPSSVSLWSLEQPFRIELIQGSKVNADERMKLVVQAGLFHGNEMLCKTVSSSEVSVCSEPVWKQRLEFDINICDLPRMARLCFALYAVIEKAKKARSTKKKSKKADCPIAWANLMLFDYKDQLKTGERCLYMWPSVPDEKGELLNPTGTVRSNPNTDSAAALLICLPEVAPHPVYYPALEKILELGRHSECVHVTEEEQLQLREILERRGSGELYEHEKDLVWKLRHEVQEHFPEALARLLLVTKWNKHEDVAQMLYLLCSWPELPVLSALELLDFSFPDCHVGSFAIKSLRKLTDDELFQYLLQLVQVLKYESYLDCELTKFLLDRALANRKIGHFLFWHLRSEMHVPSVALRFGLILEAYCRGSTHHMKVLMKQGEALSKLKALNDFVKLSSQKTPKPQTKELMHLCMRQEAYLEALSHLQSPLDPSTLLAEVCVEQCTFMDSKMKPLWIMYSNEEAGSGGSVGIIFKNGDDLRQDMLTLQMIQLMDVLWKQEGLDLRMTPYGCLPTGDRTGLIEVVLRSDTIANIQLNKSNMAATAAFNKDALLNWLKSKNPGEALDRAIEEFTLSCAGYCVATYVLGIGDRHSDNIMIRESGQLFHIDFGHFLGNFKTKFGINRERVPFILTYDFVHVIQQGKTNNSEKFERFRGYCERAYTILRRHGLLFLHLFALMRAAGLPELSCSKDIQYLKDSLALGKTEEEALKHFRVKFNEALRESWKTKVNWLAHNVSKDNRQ

[4] = Inhibition of PI3Kgamma in […] RAW264.7 cells assessed as reduction in C5a-stimulated AKT phosphorylation at Ser473 residue preincubated for 30 mins followed by C5a-stimulation and measured after 5 mins; type: cell-based
[5] = Drug metabolism in human liver microsomes assessed as oxidation of pyrrolidine linker at 1 uM measured after 30 mins in presence of NADPH-generating system; type: ADME, Microsome; settings: 0.5 h
[6] = target: T2, PI3K p110 beta/p85 alpha (Homo sapiens, UniProt P42338); experiment: Inhibition of N-terminal His6-tagged recombinant full length human p110beta/untagged recombinant full length human p85alpha expressed in baculovirus infected Sf21 insect cells at 1 uM using PIP2 as substrate measured after 80 mins by transcreener fluorescence polarization assay relative to control
T2 sequence (P27986 whole entry, canonical isoform): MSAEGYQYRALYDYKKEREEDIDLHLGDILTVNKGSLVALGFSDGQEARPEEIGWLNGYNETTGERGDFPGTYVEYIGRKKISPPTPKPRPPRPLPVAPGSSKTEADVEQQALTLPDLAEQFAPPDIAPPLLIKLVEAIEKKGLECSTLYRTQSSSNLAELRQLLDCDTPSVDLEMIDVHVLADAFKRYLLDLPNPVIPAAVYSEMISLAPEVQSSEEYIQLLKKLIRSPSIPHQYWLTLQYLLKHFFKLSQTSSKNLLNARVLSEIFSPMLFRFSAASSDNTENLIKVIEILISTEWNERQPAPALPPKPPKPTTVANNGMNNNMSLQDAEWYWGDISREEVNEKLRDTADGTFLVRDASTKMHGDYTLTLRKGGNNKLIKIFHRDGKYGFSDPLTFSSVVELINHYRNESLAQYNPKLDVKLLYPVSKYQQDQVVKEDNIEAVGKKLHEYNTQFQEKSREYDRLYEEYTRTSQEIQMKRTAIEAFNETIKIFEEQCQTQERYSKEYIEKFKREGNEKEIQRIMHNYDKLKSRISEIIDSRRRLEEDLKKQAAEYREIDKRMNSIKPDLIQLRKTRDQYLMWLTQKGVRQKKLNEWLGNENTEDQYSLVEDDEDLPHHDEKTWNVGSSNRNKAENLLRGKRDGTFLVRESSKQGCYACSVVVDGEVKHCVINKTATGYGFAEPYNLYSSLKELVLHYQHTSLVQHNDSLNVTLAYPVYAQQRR
T2 sequence (P42338 whole entry, canonical isoform): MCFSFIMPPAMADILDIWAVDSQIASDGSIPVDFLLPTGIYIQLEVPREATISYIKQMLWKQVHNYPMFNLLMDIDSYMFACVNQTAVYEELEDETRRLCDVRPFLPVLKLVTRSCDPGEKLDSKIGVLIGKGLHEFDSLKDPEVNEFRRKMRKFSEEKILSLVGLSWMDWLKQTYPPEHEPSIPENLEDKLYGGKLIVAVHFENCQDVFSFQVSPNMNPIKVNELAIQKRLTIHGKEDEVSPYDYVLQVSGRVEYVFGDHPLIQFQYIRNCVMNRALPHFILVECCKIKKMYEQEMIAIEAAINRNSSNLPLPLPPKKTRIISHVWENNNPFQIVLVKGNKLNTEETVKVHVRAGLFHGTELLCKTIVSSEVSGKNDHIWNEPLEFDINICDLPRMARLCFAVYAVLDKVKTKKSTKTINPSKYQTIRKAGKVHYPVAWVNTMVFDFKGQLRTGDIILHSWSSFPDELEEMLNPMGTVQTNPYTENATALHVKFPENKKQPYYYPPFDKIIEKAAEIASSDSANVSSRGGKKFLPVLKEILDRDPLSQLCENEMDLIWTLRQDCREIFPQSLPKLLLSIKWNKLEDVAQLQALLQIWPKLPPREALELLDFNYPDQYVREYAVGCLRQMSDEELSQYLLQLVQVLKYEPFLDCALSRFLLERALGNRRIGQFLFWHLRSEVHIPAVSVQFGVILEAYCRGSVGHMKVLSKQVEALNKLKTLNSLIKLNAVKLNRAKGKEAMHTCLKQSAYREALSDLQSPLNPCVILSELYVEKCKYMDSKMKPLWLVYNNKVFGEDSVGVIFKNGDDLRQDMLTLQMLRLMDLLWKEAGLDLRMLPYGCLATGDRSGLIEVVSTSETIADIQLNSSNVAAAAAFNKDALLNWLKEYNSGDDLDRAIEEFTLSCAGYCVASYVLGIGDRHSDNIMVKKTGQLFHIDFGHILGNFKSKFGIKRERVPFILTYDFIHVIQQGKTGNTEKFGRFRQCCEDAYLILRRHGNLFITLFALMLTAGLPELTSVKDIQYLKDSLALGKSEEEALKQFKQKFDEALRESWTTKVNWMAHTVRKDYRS

[7] = target: Phosphatidylinositol 4,5-bisphosphate 3-kinase catalytic subunit gamma isoform (Homo sapiens, UniProt P48736)
Phosphatidylinositol 4,5-bisphosphate 3-kinase catalytic subunit gamma isoform, sequence (P48736 whole entry, canonical isoform): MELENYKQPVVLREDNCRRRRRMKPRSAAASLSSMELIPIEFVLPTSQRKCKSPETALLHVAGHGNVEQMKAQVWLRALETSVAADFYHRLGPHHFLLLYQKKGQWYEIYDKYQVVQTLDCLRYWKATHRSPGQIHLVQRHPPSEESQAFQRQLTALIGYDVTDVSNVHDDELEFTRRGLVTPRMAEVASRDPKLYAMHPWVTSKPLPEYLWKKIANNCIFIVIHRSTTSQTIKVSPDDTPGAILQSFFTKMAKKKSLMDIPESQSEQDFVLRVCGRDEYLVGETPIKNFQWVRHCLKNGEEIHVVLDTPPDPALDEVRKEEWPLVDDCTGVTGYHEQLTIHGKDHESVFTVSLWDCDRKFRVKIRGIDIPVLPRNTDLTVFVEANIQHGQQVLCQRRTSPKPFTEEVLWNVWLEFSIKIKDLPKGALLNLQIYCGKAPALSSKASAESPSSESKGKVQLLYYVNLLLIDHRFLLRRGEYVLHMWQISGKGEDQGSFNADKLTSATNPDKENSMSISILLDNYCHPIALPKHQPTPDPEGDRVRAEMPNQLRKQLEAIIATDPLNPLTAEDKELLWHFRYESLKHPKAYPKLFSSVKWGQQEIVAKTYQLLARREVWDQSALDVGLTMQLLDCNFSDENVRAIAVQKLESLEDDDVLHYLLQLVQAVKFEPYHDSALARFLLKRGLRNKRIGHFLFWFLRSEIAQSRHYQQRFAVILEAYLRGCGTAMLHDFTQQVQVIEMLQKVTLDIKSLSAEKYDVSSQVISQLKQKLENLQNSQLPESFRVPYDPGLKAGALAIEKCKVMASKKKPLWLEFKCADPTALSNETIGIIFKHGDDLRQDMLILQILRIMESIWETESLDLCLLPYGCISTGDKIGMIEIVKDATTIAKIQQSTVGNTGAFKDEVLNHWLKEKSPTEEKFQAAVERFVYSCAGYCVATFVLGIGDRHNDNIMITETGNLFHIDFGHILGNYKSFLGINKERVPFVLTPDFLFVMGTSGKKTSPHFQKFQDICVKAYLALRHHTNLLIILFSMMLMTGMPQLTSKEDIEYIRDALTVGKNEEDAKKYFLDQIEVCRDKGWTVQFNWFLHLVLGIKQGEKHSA
Description: Inhibition of recombinant human full-length His-tagged PI3K p110gamma expressed in baculovirus expression system using PIP2 as substrate measured after 80 mins by transcreener fluorescence polarization assay

[8] = system: liver microsomes (Homo sapiens / Mus musculus); experiment: Drug metabolism in human and mouse liver microsomes assessed as oxidation of pyrrolidine linker at 1 uM measured after 30 mins in presence of NADPH-generating system; settings: 0.5 h
[9] = target: T2, PI3K p110 beta/p85 alpha; experiment: Inhibition of N-terminal His6-tagged recombinant full length human p110beta/untagged recombinant full length human p85alpha expressed in baculovirus infected Sf21 insect cells using PIP2 as substrate measured after 80 mins by transcreener fluorescence polarization assay
[10] = Inhibition of PI3Kdelta in rat whole blood assessed as reduction in anti-IgD-stimulated CD86 expression on B-cells preincubated for 60 mins followed by anti-IgD stimulation and measured after overnight incubation by flow cytometry; type: tissue-based

Structure (SMILES) | remaining at 0.5 h, 1 µM [1] [%] | remaining at 0.5 h, 1 µM [2] [%] | IC50 [3] [nM] | IC50 [4] [nM] | inhibition at 1 µM [6] [%] | other results
CC(=O)c1c[nH]c2ncnc(N3C[C@@H](F)C[C@H]3c3nn4ccc(Cl)c4c(=O)n3-c3ccccc3)c12 | 60.4 | 20.1 | – | – | – | –
CC(=O)c1c[nH]c2ncnc(N3CCC[C@H]3c3nn4ccc(Cl)c4c(=O)n3-c3cccc(F)c3)c12 | – | 11.7 | 3 | 7 | – | –
N#Cc1c[nH]c2ncnc(N3CCC[C@H]3c3nn4cccc4c(=O)n3-c3ccccc3)c12 | 19.1 | 2.8 | 3 | 40 | 47.7 | Drug metabolism [5]: Metabolite_Detected; IC50 [7]: 19 nM; Drug metabolism [8]: Metabolite_Detected
Nc1ncc(Cl)c(N2CC[C@H]2c2nn3ccc(Cl)c3c(=O)n2-c2ccccc2)n1 | – | – | – | – | 22.9 | –
Nc1ncc(C(=O)C(F)(F)F)c(N2CC[C@H]2c2nn3ccc(Cl)c3c(=O)n2-c2ccccc2)n1 | – | – | – | – | – | IC50 [9]: > 1000 nM
O=c1c2c(Cl)ccn2nc([C@@H]2C[C@H](F)CN2c2ncnc3[nH]cnc23)n1-c1ccccc1 | 43.8 | – | 1 | 20 | – | –
N#Cc1cnc(N)nc1N1CCC[C@H]1c1nn2ccc(Cl)c2c(=O)n1-c1ccccc1 | 23.5 | – | 3 | 22 | – | –
C#Cc1cnc(N)nc1N1CC[C@H]1c1nn2ccc(Cl)c2c(=O)n1-c1ccccc1 | – | – | – | – | 22.7 | –
O=c1c2c(Cl)ccn2nc([C@@H]2CCCN2c2ncnc3[nH]cnc23)n1-c1cccc(F)c1 | 34.6 | 64.3 | – | 8 | 54.8 | –
C[C@H](Nc1ncnc2nc[nH]c12)c1cc2cccc(Cl)c2c(=O)n1-c1ccccc1 [DUVELISIB] | – | – | – | 25 | – | IC50 [10]: 2 nM
CC[C@H](Nc1ncnc2[nH]cnc12)c1nc2cccc(F)c2c(=O)n1-c1ccccc1 [IDELALISIB] | – | – | – | 337 | – | –
